Our source for the binding, ΔTm and Kapp values is PMC6212767 (2018).

The structures appear in SMILES notation.

Assay [1] has as its system poly[d(G-C)2] (DNA, polymer) GC. Kind of assay: circular dichroism. Particulars: 25 mM NaCl; 10 mM phosphate, pH 7.0; ~100 μM bp DNA; intercalation. A general note: Circular dichroism is widely used to follow secondary structure.
For assay [2] the test system is unchanged. Kind of assay: UV melting, 260 nm. Particulars: per base.
Assay [3] deals with poly[d(A-T)2] (DNA, polymer) AT. The assay can be described thus: circular dichroism. Particulars: 25 mM NaCl; 10 mM phosphate, pH 7.0; ~100 μM bp DNA; minor groove.
The test system of assay [4] is poly[d(G-C)2] (DNA, polymer) GC. The assay can be described thus: ethidium bromide displacement fluorescence. As to conditions: apparent, per base pair, ethidium displaced, buffer as in cited literature.
Assay [5] has as its system poly[d(A-T)2] (DNA, polymer) AT. The assay can be described thus: ethidium bromide displacement fluorescence. Particulars: apparent; per base pair; ethidium displaced; slightly lower than with poly[d(G-C)2].

For the compound `CC[n+]1c(-c2ccccc2)c2cc(N)ccc2c2ccc(N)cc21`, in assay [1], the binding result is on record as “yes”. By ΔTm is commonly meant the shift of the melting midpoint relative to a reference. For `CN(C)c1ccc(C(=C2C=CC(=[N+](C)C)C=C2)c2ccc([N+](C)(C)C)cc2)cc1`, in assay [2] (compound ratio for methyl green not stated in material), the thermal shift (ΔTm) entry is “+5.2 °C”.

In the case of `Cn1cc(NC(=O)c2cc(NC(=O)CN=C(N)N)cn2C)cc1C(=O)NCCC(=N)N`, the binding result in assay [3] is “yes”.

For the compound `[Cl-].[Cl-].[Cl-].[Cl-].[Cu+2].[Cu+2].c1ccc(CN(Cc2ccc3ccc(CN(Cc4ccccn4)Cc4ccccn4)cc3c2)Cc2ccccn2)nc1`, the thermal shift (ΔTm) in assay [2] (r = 0.1, biphasic, first derivative transition d1, second transition d2 -1.5 ± 1.2 °C) was -18.5 ± 1.2 °C. Besides, in assay [4], the Kapp is ~ 1 × 10^7 M(bp)^−1. In addition, the binding result in assay [5] is reported as “yes”.
